Data published in PubChem BioAssay (NCI).
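Each compound was tested at five concentrations against cells in 96-well plates for 48 hours. GI50 marks 50% less growth. Definition used: TGI = concentration required for complete inhibition of growth.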

Key:
Experiment in all cases: DTP human tumour cell line panel, 48 h; in the data active = GI50 below about 0.43 µM; inactive = the rest
[1] = test system: 786-0 renal
[2] = test system: A498 renal
[3] = test system: ACHN renal
[4] = test system: CAKI-1 renal
[5] = test system: CCRF-CEM leukemia
[6] = test system: COLO 205 colon
[7] = test system: DU-145 prostate
[8] = test system: EKVX NSCLC
[9] = test system: HCC-2998 colon
[10] = test system: HCT-116 colon
[11] = test system: HCT-15 colon
[12] = test system: HL-60(TB) leukemia
[13] = test system: HOP-62 NSCLC
[14] = test system: HOP-92 NSCLC
[15] = test system: HS 578T breast
[16] = test system: HT29 colon
[17] = test system: IGROV1 ovarian
[18] = test system: K-562 leukemia
[19] = test system: KM12 colon
[20] = test system: LOX IMVI melanoma
[21] = test system: MALME-3M melanoma
[22] = test system: MDA-MB-231 breast
[23] = test system: MDA-MB-435
[24] = test system: MOLT-4 leukemia
[25] = test system: NCI-H226 lung
[26] = test system: NCI-H460 lung
[27] = test system: NCI-H522 lung
[28] = test system: OVCAR-3 ovarian
[29] = test system: OVCAR-4 ovarian
[30] = test system: OVCAR-5 ovarian
[31] = test system: PC-3 prostate
[32] = test system: RPMI-8226 leukemia
[33] = test system: RXF 393 renal
[34] = test system: SF-268 CNS
[35] = test system: SK-MEL-2 melanoma
[36] = test system: SK-MEL-28 melanoma
[37] = test system: SK-MEL-5 melanoma
[38] = test system: SK-OV-3 ovarian
[39] = test system: SN12C renal
[40] = test system: SNB-19 CNS
[41] = test system: SR leukemia
[42] = test system: SW-620 colon
[43] = test system: TK-10 renal
[44] = test system: U251 CNS
[45] = test system: UACC-257 melanoma
[46] = test system: UACC-62 melanoma
[47] = test system: UO-31 renal
[48] = test system: A549 NSCLC
[49] = test system: BT-549 breast
[50] = test system: M14 melanoma
[51] = test system: MCF7 breast
[52] = test system: NCI-H23 lung
[53] = test system: NCI/ADR-RES ovarian
[54] = test system: OVCAR-8 ovarian
[55] = test system: SF-295 CNS
[56] = test system: SF-539 CNS
[57] = test system: SNB-75 CNS
[58] = test system: T-47D breast

N#Cc1nc(-c2cccnc2)oc1N
> 100 µM: TGI [1] | TGI [2] | TGI [3] | TGI [4] | TGI [5] | TGI [6] | TGI [7] | TGI [8] | TGI [9] | TGI [10] | TGI [11] | TGI [12] | TGI [13] | TGI [14] | TGI [15] | TGI [16] | TGI [17] | TGI [18] | TGI [19] | TGI [20] | TGI [21] | TGI [22] | TGI [23] | TGI [24] | TGI [25] | TGI [26] | TGI [27] | TGI [28] | TGI [29] | TGI [30] | TGI [31] | TGI [32] | TGI [33] | TGI [34] | TGI [35] | TGI [36] | TGI [37] | TGI [38] | TGI [39] | TGI [40] | TGI [41] | TGI [42] | TGI [43] | TGI [44] | TGI [45] | TGI [46] | TGI [47]

O=[N+]([O-])c1cc([N+](=O)[O-])c(N2CCCC2)cc1NN=C(c1ccc(O)cc1)c1ccc(O)cc1
inactive: GI50 [1] 6.88 µM | GI50 [2] 5.34 µM | GI50 [48] 3.82 µM | GI50 [3] 2.31 µM | GI50 [49] 18.5 µM | GI50 [4] 6.23 µM | GI50 [5] 2.17 µM | GI50 [6] 3.79 µM | GI50 [7] 7.43 µM | GI50 [8] 0.508 µM | GI50 [9] 4.12 µM | GI50 [10] 4.54 µM | GI50 [11] 3.98 µM | GI50 [12] 7.89 µM | GI50 [13] 10.3 µM | GI50 [14] 10.1 µM | GI50 [16] 3.41 µM | GI50 [17] 3.96 µM | GI50 [18] 2.35 µM | GI50 [19] 3.51 µM | GI50 [20] 3.28 µM | GI50 [50] 9.62 µM | GI50 [21] 14.9 µM | GI50 [51] 3.55 µM | GI50 [22] 4.01 µM | GI50 [23] 2.52 µM | GI50 [24] 3.36 µM | GI50 [25] 16.9 µM | GI50 [52] 9.46 µM | GI50 [26] 4.21 µM | GI50 [27] 12.8 µM | GI50 [53] 13.6 µM | GI50 [28] 2.41 µM | GI50 [29] 4.03 µM | GI50 [30] 17.2 µM | GI50 [54] 9.86 µM | GI50 [31] 6.07 µM | GI50 [32] 3.78 µM | GI50 [33] 3.12 µM | GI50 [34] 2.99 µM | GI50 [55] 1.48 µM | GI50 [56] 12.4 µM | GI50 [35] 7.04 µM | GI50 [36] 3.39 µM | GI50 [37] 2.73 µM | GI50 [38] 7.44 µM | GI50 [39] 10.1 µM | GI50 [40] 7.06 µM | GI50 [57] 1.34 µM | GI50 [41] 5.98 µM | GI50 [42] 9.15 µM | GI50 [58] 0.681 µM | GI50 [43] 11.6 µM | GI50 [44] 4.81 µM | GI50 [45] 13.6 µM | GI50 [46] 5.82 µM | GI50 [47] 5.54 µM
14.5 µM: TGI [9] | TGI [16]
60.5 µM: TGI [54]
18.3 µM: TGI [44]
20.1 µM: TGI [51]
14.4 µM: TGI [23]
21.2 µM: TGI [42]
7.65 µM: TGI [28]
15.9 µM: TGI [11] | TGI [26]
21.5 µM: TGI [5]
45.8 µM: TGI [25]
4.76 µM: TGI [58]
26.4 µM: TGI [14]
35 µM: TGI [21]
24.3 µM: TGI [35]
23.9 µM: TGI [8]
16.4 µM: TGI [48]
75.3 µM: TGI [49]
15.3 µM: TGI [37]
24.8 µM: TGI [56]
24.5 µM: TGI [13]
37.5 µM: TGI [12]
26.9 µM: TGI [45]
> 100 µM: TGI [24] | TGI [31]
35.8 µM: TGI [43]
14.1 µM: TGI [19]
21.6 µM: TGI [40]
19.8 µM: TGI [1] | TGI [38]
21 µM: TGI [18]
16 µM: TGI [22]
18.5 µM: TGI [47]
23.3 µM: TGI [52] | TGI [39]
45.6 µM: TGI [27]
22.1 µM: TGI [50]
21.1 µM: TGI [4]
13.8 µM: TGI [36]
14.6 µM: TGI [20]
16.9 µM: TGI [17]
15.5 µM: TGI [6]
12.8 µM: TGI [33]
5.36 µM: TGI [55]
24 µM: TGI [32]
19 µM: TGI [46]
16.7 µM: TGI [2]
6.4 µM: TGI [57]
40 µM: TGI [29]
30.9 µM: TGI [30] | TGI [41]
11.7 µM: TGI [3]
37.9 µM: TGI [53]
20.2 µM: TGI [7]
12.6 µM: TGI [34]
16.5 µM: TGI [10]
